ChEMBL document CHEMBL1933015, “Synthesis and evaluation of novel prodrugs of caspase inhibitors” (Bioorg Med Chem Lett, 2012)

Key:
Plasma [1] = test: Half life in rat plasma assessed as < 10% of prodrug is remaining; format: ADME, cell-free
Plasma [2] = test: Half life in human plasma assessed as < 50% of prodrug is remaining; format: ADME, cell-free
[3] = Half life in buffer at pH 4 assessed as prodrug conversion; format: physicochemical
[4] = Half life in buffer at pH 6 assessed as prodrug conversion; format: physicochemical
[5] = Half life in buffer at pH 7.4 assessed as prodrug conversion; format: physicochemical
[6] = Half life in buffer at pH 9 assessed as prodrug conversion; format: physicochemical
Rattus norvegicus [7] = test: AUC (0 to infinity) in Sprague-Dawley rat assessed as VX166 level in plasma at 10 mg/kg, po; format: ADME, organism-based; parameters: time infinity, dose 10 mg/kg, route oral; settings: in vivo
Rattus norvegicus [8] = test: Half life in Sprague-Dawley rat assessed as prodrug conversion to VX166 at 10 mg/kg, po; format: ADME, organism-based; parameters: dose 10 mg/kg, route oral; settings: in vivo
Rattus norvegicus [9] = test: Tmax in Sprague-Dawley rat assessed as VX166 level at 10 mg/kg, po; format: ADME, organism-based; parameters: dose 10 mg/kg, route oral; settings: in vivo
Rattus norvegicus [10] = test: Oral bioavailability in Sprague-Dawley rat assessed as VX166 level at 10 mg/kg; format: ADME, organism-based; settings: in vivo
[11] = Permeability from apical to basal side across human Caco2 cells; format: ADME, cell-based; settings: Caco-2, read-out: permeability
[12] = Permeability from basal to apical side across human Caco2 cells; format: ADME, cell-based; settings: Caco-2, read-out: permeability
Plasma [13] = test: Half life in rat plasma assessed as < 50% of prodrug is remaining; format: ADME, cell-free
Plasma [14] = test: Half life in human plasma assessed as around 50% of prodrug is remaining; format: ADME, cell-free
[15] = AUC (0 to infinity) in Sprague-Dawley rat at 10 mg/kg, iv; format: ADME, organism-based; parameters: time infinity, dose 10 mg/kg, route intravenous; settings: plasma
[16] = AUC (0 to infinity) in Sprague-Dawley rat at 10 mg/kg, po; format: ADME, organism-based; parameters: time infinity, dose 10 mg/kg, route oral; settings: plasma
[17] = Clearance in Sprague-Dawley rat at 10 mg/kg, iv; format: ADME, organism-based; parameters: dose 10 mg/kg, route intravenous; settings: in vivo
[18] = Half life in Sprague-Dawley rat at 10 mg/kg, iv; format: ADME, organism-based; parameters: dose 10 mg/kg, route intravenous; settings: in vivo
[19] = Half life in Sprague-Dawley rat at 10 mg/kg, po; format: ADME, organism-based; parameters: dose 10 mg/kg, route oral; settings: in vivo
[20] = Tmax in Sprague-Dawley rat at 10 mg/kg, po; format: ADME, organism-based; parameters: dose 10 mg/kg, route oral; settings: in vivo
[21] = Oral bioavailability in Sprague-Dawley rat at 10 mg/kg; format: ADME, organism-based; settings: in vivo

| SMILES | t1/2 (Plasma [1]) | t1/2 [3] | t1/2 [4] | t1/2 [5] | t1/2 [6] | Papp A→B [11] | Papp B→A [12] | t1/2 (Plasma [14]) | also measured |
| --- | --- | --- | --- | --- | --- | --- | --- | --- | --- |
| CC[C@@H](C1=N[C@H]2CC(=O)O[C@@]2(COc2c(F)c(F)cc(F)c2F)O1)n1cccc(NC(=O)OC)c1=O | < 1 min | 108 min | 522 min | 192 min | 42 min | – | – | – | t1/2 (Plasma [2]): < 1 min; AUC (Rattus norvegicus [7]): 1660 ng·h/mL; t1/2 (Rattus norvegicus [8]): 58.2 min; Tmax (Rattus norvegicus [9]): 37.8 min; F (Rattus norvegicus [10]): 27% |
| C[C@H](NC(=O)C(=O)Nc1ccccc1C(C)(C)C)C1=N[C@H]2CC(=O)O[C@@]2(COc2c(F)c(F)cc(F)c2F)O1 | – | 72 min | 1490 min | 1780 min | 438 min | 0.5 ×10⁻⁶ cm/s | 10 ×10⁻⁶ cm/s | 1 min | t1/2 (Plasma [13]): < 1 min |
| C[C@H](NC(=O)C(=O)Nc1ccccc1C(C)(C)C)C(=O)N[C@@H](CC(=O)O)C(=O)COc1c(F)c(F)cc(F)c1F [EMRICASAN] | – | – | – | – | – | 0.5 ×10⁻⁶ cm/s | 10 ×10⁻⁶ cm/s | – | – |
| CC[C@@H](C(=O)N[C@@H](CC(=O)O)C(=O)COc1c(F)c(F)cc(F)c1F)n1cccc(NC(=O)OC)c1=O | – | – | – | – | – | – | – | – | AUC(0-inf) [15]: 6160 ng·h/mL; AUC(0-inf) [16]: 860 ng·h/mL; clearance [17]: 22.3 mL/min/kg; half-life [18]: 31.8 min; half-life [19]: 91.8 min; Tmax [20]: 19.8 min; bioavailability [21]: 14% |
| O=C1C[C@@H]2N=C(c3cccc4ccccc34)O[C@]2(CF)O1 | < 1 min | 864 min | 792 min | 240 min | 48 min | – | – | 1 min | – |
